In brackets after ≈: the same amount, converted by molar mass.
Tests used:
[1] = system: malignant tumors and leukemias; assay: Cytostatic activity (statement); format: cell-based; conditions: general statement, no data given
Salmonella typhimurium = assay: MIC against bacteria and fungi (Table I); format: cell-based; conditions: Salmonella enterica, read-out: Minimum inhibitory concentration (MIC)
Description: (§1) The minimum inhibitory concentrations of the new antibiotic aranorosin required to inhibit various strains of bacteria and fungi are listed in Table I.

E. coli DC 2 = assay: MIC against bacteria and fungi (Table I); format: cell-based; conditions: Escherichia coli, DC2, read-out: Minimum inhibitory concentration (MIC)
Description: as §1

[2] = system: Streptococcus pyogenes 308A; assay: MIC against bacteria and fungi (Table I); format: cell-based; conditions: read-out: Minimum inhibitory concentration (MIC)
Description: as §1

Aspergillus niger = assay: MIC against bacteria and fungi (Table I); format: cell-based; conditions: read-out: Minimum inhibitory concentration (MIC)
Description: as §1

Botrytis cinerea = assay: MIC against bacteria and fungi (Table I); format: cell-based; conditions: read-out: Minimum inhibitory concentration (MIC)
Description: as §1

E. coli 055 = assay: MIC against bacteria and fungi (Table I); format: cell-based; conditions: Escherichia coli, read-out: Minimum inhibitory concentration (MIC)
Description: as §1

E. coli 1507 E = assay: MIC against bacteria and fungi (Table I); format: cell-based; conditions: Escherichia coli, read-out: Minimum inhibitory concentration (MIC)
Description: as §1

Cercospora beticola = assay: MIC against bacteria and fungi (Table I); format: cell-based; conditions: read-out: Minimum inhibitory concentration (MIC)
Description: as §1

Microspora gypseum = assay: MIC against bacteria and fungi (Table I); format: cell-based; conditions: read-out: Minimum inhibitory concentration (MIC)
Description: as §1

[3] = system: Staphylococcus aureus 285; assay: MIC against bacteria and fungi (Table I); format: cell-based; conditions: read-out: Minimum inhibitory concentration (MIC)
Description: as §1

E. coli TEM = assay: MIC against bacteria and fungi (Table I); format: cell-based; conditions: Escherichia coli, read-out: Minimum inhibitory concentration (MIC)
Description: as §1

Penicillium italicum = assay: MIC against bacteria and fungi (Table I); format: cell-based; conditions: read-out: Minimum inhibitory concentration (MIC)
Description: as §1

[4] = system: Pseudomonas aeruginosa 1771; assay: MIC against bacteria and fungi (Table I); format: cell-based; conditions: read-out: Minimum inhibitory concentration (MIC)
Description: as §1

[5] = system: Pseudomonas aeruginosa 1592 E; assay: MIC against bacteria and fungi (Table I); format: cell-based; conditions: read-out: Minimum inhibitory concentration (MIC)
Description: as §1

Sarcina lutea = assay: MIC against bacteria and fungi (Table I); format: cell-based; conditions: Micrococcus luteus, read-out: Minimum inhibitory concentration (MIC)
Description: as §1

[6] = system: Pseudomonas aeruginosa 1771 M; assay: MIC against bacteria and fungi (Table I); format: cell-based; conditions: read-out: Minimum inhibitory concentration (MIC)
Description: as §1

[7] = system: Staphylococcus aureus 20204; assay: MIC against bacteria and fungi (Table I); format: cell-based; conditions: read-out: Minimum inhibitory concentration (MIC)
Description: as §1

[8] = system: Enterobacter cloacae P 99; assay: MIC against bacteria and fungi (Table I); format: cell-based; conditions: P99, read-out: Minimum inhibitory concentration (MIC)
Description: as §1

E. coli DC O = assay: MIC against bacteria and fungi (Table I); format: cell-based; conditions: Escherichia coli, read-out: Minimum inhibitory concentration (MIC)
Description: as §1

[9] = system: Klebsiella aerogenes 1082 E; assay: MIC against bacteria and fungi (Table I); format: cell-based; conditions: read-out: Minimum inhibitory concentration (MIC)
Description: as §1

[10] = system: Staphylococcus aureus SG 511; assay: MIC against bacteria and fungi (Table I); format: cell-based; conditions: SG511, read-out: Minimum inhibitory concentration (MIC)
Description: as §1

[11] = system: Enterobacter cloacae 1321 E; assay: MIC against bacteria and fungi (Table I); format: cell-based; conditions: read-out: Minimum inhibitory concentration (MIC)
Description: as §1

[12] = system: Klebsiella aerogenes 1522 E; assay: MIC against bacteria and fungi (Table I); format: cell-based; conditions: read-out: Minimum inhibitory concentration (MIC)
Description: as §1

[13] = system: Staphylococcus aureus R 85; assay: MIC against bacteria and fungi (Table I); format: cell-based; conditions: R85, read-out: Minimum inhibitory concentration (MIC)
Description: as §1

Streptococcus faecalis = assay: MIC against bacteria and fungi (Table I); format: cell-based; conditions: Enterococcus faecalis, read-out: Minimum inhibitory concentration (MIC)
Description: as §1

[14] = system: Staphylococcus aureus 503; assay: MIC against bacteria and fungi (Table I); format: cell-based; conditions: read-out: Minimum inhibitory concentration (MIC)
Description: as §1

E. coli Ese 2231 = assay: MIC against bacteria and fungi (Table I); format: cell-based; conditions: Escherichia coli, ESE2231, read-out: Minimum inhibitory concentration (MIC)
Description: as §1

[15] = system: Streptococcus pyogenes 77 A; assay: MIC against bacteria and fungi (Table I); format: cell-based; conditions: read-out: Minimum inhibitory concentration (MIC)
Description: as §1

[16] = system: Staphylococcus aureus 209 P; assay: MIC against bacteria and fungi (Table I); format: cell-based; conditions: read-out: Minimum inhibitory concentration (MIC)
Description: as §1

Candida albicans = assay: MIC against bacteria and fungi (Table I); format: cell-based; conditions: read-out: Minimum inhibitory concentration (MIC)
Description: as §1

[17] = system: Pseudomonas aeruginosa ATCC 9027; assay: MIC against bacteria and fungi (Table I); format: cell-based; conditions: ATCC9027, read-out: Minimum inhibitory concentration (MIC)
Description: as §1

Saccaromyces cerevisiae = assay: MIC against bacteria and fungi (Table I); format: cell-based; conditions: read-out: Minimum inhibitory concentration (MIC)
Description: as §1

Bacillus subtilis = assay: MIC against bacteria and fungi (Table I); format: cell-based; conditions: read-out: Minimum inhibitory concentration (MIC)
Description: as §1

[18] = system: Gram-positive and Gram-negative bacteria as well as yeasts and filamentous fungi; assay: Antibacterial and antifungal activity (summary statement); format: cell-based
Description: as §1

Solubility = format: physicochemical

**Q.** Which cytostatic properties [1] does the source give for `CCCCCCC(C)/C=C(C)/C=C/C(=O)NC1CC2(OC1O)C1OC1C(=O)C1OC12` (stereo not shown) [aranorosin] here?
**A.** has cytostatic properties

**Q.** And the MIC (Salmonella typhimurium)?
**A.** 50 µg/mL (≈ 119 µM)

**Q.** What about the MIC (E. coli DC 2) of the same molecule?
**A.** 25 µg/mL (≈ 59.6 µM)

**Q.** And the MIC [2]?
**A.** 0.78 µg/mL (≈ 1.86 µM)

**Q.** What about the MIC (Aspergillus niger) of the same molecule?
**A.** 7.5 µg/mL (≈ 17.9 µM)

**Q.** And the MIC (Botrytis cinerea)?
**A.** 30 µg/mL (≈ 71.5 µM)

**Q.** And the MIC (E. coli 055)?
**A.** 100 µg/mL (≈ 238 µM)

**Q.** And the MIC (E. coli 1507 E)?
**A.** 100 µg/mL (≈ 238 µM)

**Q.** And the MIC (Cercospora beticola)?
**A.** 3 µg/mL (≈ 7.15 µM)

**Q.** What about the MIC (Microspora gypseum) of the same molecule?
**A.** 3 µg/mL (≈ 7.15 µM)

**Q.** What about the MIC [3] of the same molecule?
**A.** 0.78 µg/mL (≈ 1.86 µM)

**Q.** What about the MIC (E. coli TEM) of the same molecule?
**A.** 100 µg/mL (≈ 238 µM)

**Q.** What about the MIC (Penicillium italicum) of the same molecule?
**A.** 30 µg/mL (≈ 71.5 µM)

**Q.** What about the MIC [4] of the same molecule?
**A.** > 100 µg/mL

**Q.** And the MIC [5]?
**A.** > 100 µg/mL

**Q.** What about the MIC (Sarcina lutea) of the same molecule?
**A.** 1.5 µg/mL (≈ 3.58 µM)

**Q.** What about the MIC [6] of the same molecule?
**A.** 50 µg/mL (≈ 119 µM)

**Q.** And the MIC [7]?
**A.** 1.5 µg/mL (≈ 3.58 µM)

**Q.** What about the MIC [8] of the same molecule?
**A.** 100 µg/mL (≈ 238 µM)

**Q.** And the MIC (E. coli DC O)?
**A.** 100 µg/mL (≈ 238 µM)

**Q.** And the MIC [9]?
**A.** 50 µg/mL (≈ 119 µM)

**Q.** And the MIC [10]?
**A.** 0.78 µg/mL (≈ 1.86 µM)

**Q.** And the MIC [11]?
**A.** 100 µg/mL (≈ 238 µM)

**Q.** And the MIC [12]?
**A.** 100 µg/mL (≈ 238 µM)

**Q.** What about the MIC [13] of the same molecule?
**A.** 1.5 µg/mL (≈ 3.58 µM)

**Q.** What about the MIC (Streptococcus faecalis) of the same molecule?
**A.** 3 µg/mL (≈ 7.15 µM)

**Q.** And the MIC [14]?
**A.** 0.78 µg/mL (≈ 1.86 µM)

**Q.** And the MIC (E. coli Ese 2231)?
**A.** > 200 µg/mL

**Q.** And the MIC [15]?
**A.** 0.78 µg/mL (≈ 1.86 µM)

**Q.** What about the MIC [16] of the same molecule?
**A.** 1.5 µg/mL (≈ 3.58 µM)

**Q.** And the MIC (Candida albicans)?
**A.** 30 µg/mL (≈ 71.5 µM)

**Q.** What about the MIC [17] of the same molecule?
**A.** > 100 µg/mL

**Q.** What about the MIC (Saccaromyces cerevisiae) of the same molecule?
**A.** 500 µg/mL (≈ 1190 µM)

**Q.** And the MIC (Bacillus subtilis)?
**A.** 1.5 µg/mL (≈ 3.58 µM)

**Q.** And the “effectiveness against bacteria, yeasts and filamentous fungi” value ([18]; conclusion from Table I)?
**A.** effective against Gram-positive and Gram-negative bacteria as well as yeasts and filamentous fungi

**Q.** What about the “bactericidal and fungicidal properties” value ([18]; general statement) of the same molecule?
**A.** has bactericidal and fungicidal properties

**Q.** What about the Solubility (Solubility; in benzene) of the same molecule?
**A.** sparingly soluble

**Q.** And the Solubility (Solubility; in diethyl ether, chloroform, acetone, ethyl acetate, dimethyl sulfoxide and methanol)?
**A.** soluble

**Q.** And the Solubility (Solubility; in petroleum ether)?
**A.** Insoluble

**Q.** What about the Solubility (Solubility; in water) of the same molecule?
**A.** Insoluble

From US5112858A, “Antibiotic, aranorosin, a microbiological process for the preparation thereof, and the use thereof as a pharmaceutical” (Hoechst Aktiengesellschaft, priority 1988, dated 1992)
